Experimental data from ChEMBL document CHEMBL4715853 (J Med Chem, 2020).
In brackets after ≈: the same amount, converted by molar mass.

Columns and labels:
[1] = Inhibition of SARS Coronavirus helicase expressed in Escherichia coli assessed as reduction in ATP hydrolysis preincubated for 5 mins followed by ATP and circular ssDNA M13 addition and measured after 10 mins by malachite green and ammonium molybdate reagent based assay; parameters: species or system Severe acute respiratory syndrome-related coronavirus
[2] = Inhibition of SARS Coronavirus helicase expressed in Escherichia coli assessed as reduction in dsDNA unwinding activity by FRET assay; parameters: species or system Severe acute respiratory syndrome-related coronavirus
[3] = system: Human coronavirus 229E; experiment: Antiviral activity against HCoV-229E infected in human MRC-5 cells incubated for 96 hrs by XTT assay; assay type: functional, organism-based; conditions: MRC5, 96 h
[4] = Cytotoxicity against human MRC5 cells incubated for 96 hrs by XTT assay; assay type: cell-based
[5] = Selectivity ratio of CC50 for human MRC5 cells to EC50 for HCoV-229E infected in human MRC5 cells; assay type: toxicity, cell-based; conditions: read-out: Ratio CC50/EC50
[6] = Cytotoxicity against African green monkey Vero E6 cells by the CCK8 assay; assay type: cell-based, Vero C1008; conditions: chlorocebus sabaeus
[7] = system: Human coronavirus OC43; experiment: Antiviral activity against wild type HCoV-OC43 infected in human Huh-7 cells preincubated for 1 hrs followed by overlaying with reduced-serum Medium and measured after 72 hrs ELISpot assay; assay type: functional, cell-based; conditions: Betacoronavirus 1, Huh-7
[8] = Cytotoxicity against human Huh-7 cells by CellTiter-Glo assay; assay type: cell-based
[9] = system: Human coronavirus 229E; experiment: Antiviral activity against HCoV-229E infected in human Huh7 cells assessed as reduction in virus induced cytopathic effect incubated for 6 days by cellTiter-Glo assay; assay type: functional, organism-based; conditions: Huh-7, 144 h
[10] = system: Huh-7; experiment: Cytotoxicity against human Huh7 cells incubated for 6 days by cellTiter-Glo assay; assay type: functional; conditions: Huh-7, 144 h, time 6 day
[11] = system: SARS-CoV; experiment: Antiviral activity against SARS-CoV expressing green fluorescent protein infected in human airway epithelial cells incubated for 48 hrs by RT-PCR method; assay type: functional, organism-based; conditions: Severe acute respiratory syndrome-related coronavirus, HAE
[12] = Cytotoxicity against HAE cells by CellTiter-Glo assay; assay type: cell-based; conditions: human
[13] = Inhibition of SARS Coronavirus helicase pp1ab domain assessed as reduction in ATPase activity by phosphomolybdate-malachite green assay; parameters: species or system Severe acute respiratory syndrome-related coronavirus
[14] = Inhibition of SARS Coronavirus helicase pp1ab domain assessed as reduction in helicase activity using DT20Cy3/Release BHQ oligomers by FRET-based assay; parameters: species or system Severe acute respiratory syndrome-related coronavirus
[15] = system: SARS-CoV; experiment: Antiviral activity against SARS-CoV by cell-based assay; assay type: functional; conditions: Severe acute respiratory syndrome-related coronavirus
[16] = system: Human coronavirus OC43; experiment: Antiviral activity against wild type HCoV-OC43 infected in BHK-21 cells incubated for 72 hrs by RT-PCR method; assay type: functional, cell-based; conditions: Betacoronavirus 1, BHK-21, 72 h
[17] = Antiviral activity against HCoV-NL63 infected in Rhesus macaque LLC-MK2 cells incubated for 72 hrs by RT-PCR method; assay type: functional, cell-based; conditions: Human coronavirus NL63, LLC-MK2, 72 h
[18] = in vitro; conditions: hamster, BHK-21 cells
[19] = in vitro; conditions: hamster, BHK-21 cells; remark: listed apart in the source
[20] = in vitro; conditions: rhesus monkey, LLC-MK2 cells
[21] = in vitro; conditions: rhesus monkey, LLC-MK2 cells; remark: listed apart in the source
[22] = Selectivity index, ratio of CC50 for African green monkey Vero E6 cells to EC50 for SARS-CoV infected in African green monkey Vero E6 cells; assay type: toxicity, Vero C1008; conditions: read-out: Ratio CC50/EC50
[23] = Cytotoxicity against African green monkey Vero E6 cells incubated for 2 days by the MTS assay; assay type: cell-based, Vero C1008; conditions: chlorocebus sabaeus, time 2 day
[24] = system: SARS-CoV; experiment: Antiviral activity against SARS-CoV infected in African green monkey Vero E6 cells assessed as reduction in viral replication by ELISA; assay type: functional, organism-based; conditions: Severe acute respiratory syndrome-related coronavirus, Vero C1008
[25] = system: SARS-CoV; experiment: Antiviral activity against SARS-CoV FFM1 infected in African green monkey Vero cells assessed as reduction in virus induced cytopathic effect treated twice for 7 days; assay type: functional, organism-based; conditions: Severe acute respiratory syndrome-related coronavirus, 168 h
[26] = system: SARS-CoV; experiment: Antiviral activity against SARS-CoV FFM2 infected in African green monkey Vero cells assessed as reduction in virus induced cytopathic effect treated twice for 7 days; assay type: functional, organism-based; conditions: Severe acute respiratory syndrome-related coronavirus, 168 h
[27] = Selectivity ratio of CC50 for African green monkey Vero cells to EC50 for SARS-CoV FFM1 infected in African green monkey Vero cells; assay type: toxicity; conditions: read-out: Ratio CC50/EC50
[28] = Selectivity ratio of CC50 for African green monkey Vero cells to EC50 for SARS-CoV FFM2 infected in African green monkey Vero cells; assay type: toxicity; conditions: read-out: Ratio CC50/EC50
[29] = system: SARS-CoV-2; experiment: Antiviral activity against SARS-CoV-2 infected in African green monkey Vero cells incubated for 48 hrs by RT-PCR method; assay type: functional, organism-based; conditions: Severe acute respiratory syndrome coronavirus 2, Vero

NS(=O)(=O)c1ccc(NC(=O)/C=C/c2ccco2)cc1
IC50 [1]: 2.09 µM | IC50 [2]: 13.2 µM

C[C@H]1O[C@@H](O[C@H]2CC[C@@]3(C)[C@@H](CC[C@]4(C)[C@@H]3C=CC3=C5CC(C)(C)CC[C@]5(CO)[C@H](O)C[C@]34C)[C@]2(C)CO)[C@H](O)[C@@H](O[C@@H]2O[C@H](CO)[C@@H](O)[C@H](O)[C@H]2O)[C@H]1O
EC50 [3]: 1.7 µM | CC50 at 96 h [4]: 383 µM | selectivity ratio [5]: 222

CCC(CC)COC(=O)[C@H](C)N[P@](=O)(OC[C@H]1O[C@@](C#N)(c2ccc3c(N)ncnn23)[C@H](O)[C@@H]1O)Oc1ccccc1
CC50 [6]: 100 µM | EC50 [7]: 0.15 µM | CC50 [8]: > 10 µM | EC50 [9]: 0.024 µM | CC50 [10]: > 10 µM | EC50 [11]: 0.06 µM | CC50 [12]: > 10 µM

CCn1c(S)nc2c1c(=O)[nH]c(=O)n2C
IC50 [1]: 8.66 µM | IC50 [2]: 41.6 µM

COc1cc(CC(C)c2nc(C)c(O)c(C34OC5(O)CC(O)(CC(O)(C5)O3)O4)c2CO)ccc1O (stereo not given)
IC50 [13]: 2.8 µM | IC50 [14]: 5.4 µM

COc1cc(C23OC4(O)CC(O)(CC(O)(C4)O2)O3)ccc1O
IC50 [13]: 0.68 µM | IC50 [14]: 2.7 µM

Cc1nc(I)c(C(=O)O)c(C23OC4(O)CC(O)(CC(O)(C4)O2)O3)c1O
IC50 [13]: 0.54 µM | IC50 [14]: 7 µM

C[C@@H]1O[C@@H](O[C@H]2[C@H](O[C@H]3CC[C@@]4(C)[C@@H](CC[C@]5(C)[C@@H]4CC=C4[C@@H]6CC(C)(C)CC[C@]6(C(=O)O)CC[C@]45C)[C@]3(C)CO)OC[C@H](O)[C@@H]2O)[C@H](O)[C@H](O)[C@H]1O [ALPHA-HEDERIN]
MIC [15]: 10 µM (≈ 7.51 µg/mL)

CC[C@H]1CN2CCc3cc(OC)c(OC)cc3[C@@H]2C[C@@H]1C[C@H]1NCCc2cc(OC)c(OC)cc21 [EMETINE]
EC50 [16]: 0.3 µM | EC50 [17]: 1.43 µM | CC50 at 72 h [18]: 2.69 µM | selectivity ratio [19]: 9 | CC50 at 72 h [20]: 3.63 µM | selectivity ratio [21]: 2.5

C/C=C(\C)C(=O)O[C@H]1[C@H](OC(C)=O)[C@]2(CO)[C@H](O)C[C@]3(C)C(=CC[C@@H]4[C@@]5(C)CC[C@H](O[C@@H]6O[C@H](C(=O)O)[C@@H](O[C@@H]7O[C@H](CO)[C@@H](O)[C@H](O)[C@H]7O)[C@H](O)[C@H]6O[C@@H]6O[C@H](CO)[C@@H](O)[C@H](O)[C@H]6O)[C@](C)(CO)[C@@H]5CC[C@]43C)[C@@H]2CC1(C)C [ESCIN IA]
selectivity ratio [22]: 2.5 | CC50 at 48 h [23]: 25 µM | IC50 [24]: 6 µM

CC1(C)[C@@H](O[C@H]2O[C@H](C(=O)O)[C@@H](O)[C@H](O)[C@H]2O[C@@H]2O[C@H](C(=O)O)[C@@H](O)[C@H](O)[C@H]2O)CC[C@]2(C)[C@H]3C(=O)C=C4[C@@H]5C[C@@](C)(C(=O)O)CC[C@]5(C)CC[C@@]4(C)[C@]3(C)CC[C@@H]12 [GLYCYRRHIZIN]
EC50 [25]: 365 µM | EC50 [26]: 365 µM | selectivity ratio [27]: 66 | selectivity ratio [28]: 66

CCN(CCO)CCCC(C)Nc1ccnc2cc(Cl)ccc12 (stereo not given) [HYDROXYCHLOROQUINE]
IC50 [29]: 0.72 µM
